Laboratory results: patent publication US20250171405A1, “PYRAZOLYL COMPOUNDS AS KV7 CHANNEL ACTIVATORS” (Biohaven Therapeutics Ltd., priority 2022, published 2025)

Target: T1, Kv7.2/7.3 (Homo sapiens, UniProt O43525+O43526)
T1 construct: Kv7.3 is constitutive and Kv7.2 is tetracycline-induced
Experiment: Kv7.2/7.3 Thallium Flux Assay (FluxOR II Green)
Assay type: cell-based
Settings: single concentration of 10 μM; fluorescence at 90 sec normalized to positive control (retigabine, 30 μM); hKv7.2/7.3 cell line
Description: The Thallium Flux Assay is used as a surrogate indicator of potassium channel activity.
The experimental protocol was adapted from the FluxOR™ II Green Potassium Ion Channel Assay User Guide (Pub. No. MAN0016084, Invitrogen). Conditions were optimized for the Kv7.2/7.3 cell line.
Cell Line: The hKV7.2/7.3 cell line was obtained from Chantest (cat. #CT6147).
Cell Culture: Kv7.2/7.3 cells were maintained in a media containing DMEM/F12; 50/50 (Fisher 11-330), 10% Fetal Bovine Serum (FBS) (Fisher 26-140), 100 units/mL Penicillin-Streptomycin (Fisher 15-140), 0.005 mg/ml Blasticidin (InvivoGen ant-bl-1), 0.5 mg/mL Geneticin (InvivoGen ant-gn-5), and 0.1 mg/mL Zeocin (Fisher R25001). One day prior to experimentation, cells were plated in 96 well clear bottom plates (Corning cat. #353219) in a media without Blasticidin, Geneticin, or Zeocin. In this cell line Kv7.3 channel expression is controlled by a constitutive promoter. Kv7.2 channel expression was induced by adding tetracycline (Sigma T7660) at a final concentration of 10 ng/mL overnight in a cell culture incubator at 37° C. and 5% CO2. On the day of assay, the cell culture medium in the 96-well plates was replaced by assay buffer containing the thallium-sensitive fluorescent sensor, FluxOR II Green prepared according to manufacturer's instructions. The 96-well plates were then incubated for 1 h at 37° C. Following the incubation, the FluxOR II Green-containing solution was replaced with extracellular solution.
Test Compound Plates: The test compound is diluted in a mixture of 0.1% DMSO/extracellular solution at a single concentration of 10 μM. Dilutions were made on a Biomek NXP (BECKMAN COULTER). Extracellular solution contained (in mM: 145 NaCl, 4 KCl, 2 CaCl2), 1 MgCl2, 10 HEPES, and 10 Glucose, pH 7.4)
Measurement and data analysis: Thallium-flux-mediated changes in intracellular fluorescence were made using a plate reader (Enspire, Perkin Elmer) set with an excitation wavelength of 475 nm and an emission wavelength of 530 nm. After a 15 sec baseline measurement, the stimulus buffer containing thallium and potassium was added to the 96-well plate containing FluxOR II Green-loaded cells and test compounds. Fluorescence values at 90 sec were normalized to the positive control (retigabine, 30 μM) and test compound activities were assigned categories according to the formula: “No Activity <0.15, “+” Moderate Activity 0.15-0.7, and “++” High Activity >0.7.

| Compound | Kv7.2/7.3 Activity |
| --- | --- |
| C[C@@H](C(=O)Nc1n[nH]c(-c2ccc(Cl)s2)c1C1CCC1)C1(C(F)(F)F)CC1 (stereo in doubt) [Compound 5, N-(5-(5-chlorothiophen-2-yl)-4-cyclobutyl-1H-pyrazol-3-yl)-2-(1-(trifluoromethyl)cyclopropyl)propanamide] | + (“+” Moderate Activity 0.15-0.7) |
| O=C(CC1CC(F)(F)C1)Nc1n[nH]c(-c2ccc(F)cc2)c1C1CCC1 [Compound 1, N-(4-cyclobutyl-5-(4-fluorophenyl)-1H-pyrazol-3-yl)-2-(3,3-difluorocyclobutyl)acetamide] | ++ (“++” High Activity ≥0.7) |
| O=C(Nc1n[nH]c(-c2ccc(Cl)s2)c1C1CCC1)C1CC(F)(F)C1 [Compound 2, N-(5-(5-chlorothiophen-2-yl)-4-cyclobutyl-1H-pyrazol-3-yl)-3,3-difluorocyclobutane-1-carboxamide] | ++ (“++” High Activity ≥0.7) |
| O=C(Nc1n[nH]c(-c2ccc(Cl)s2)c1C1CCC1)C1CSC1 [Compound 3, N-(5-(5-chlorothiophen-2-yl)-4-cyclobutyl-1H-pyrazol-3-yl)thietane-3-carboxamide] | − (“−” No Activity <0.15) |
| O=C(Nc1n[nH]c(-c2ccc(Cl)s2)c1C1CCC1)C1CC(C(F)(F)F)C1 (stereo not shown) [Compound 4, N-(5-(5-chlorothiophen-2-yl)-4-cyclobutyl-1H-pyrazol-3-yl)-3-(trifluoromethyl)cyclobutane-1-carboxamide] | ++ (“++” High Activity ≥0.7) |
| O=C(Nc1n[nH]c(-c2ccc(F)cc2)c1C1CCC1)C1CC(F)(F)C1 [Compound 6, N-(4-cyclobutyl-5-(4-fluorophenyl)-1H-pyrazol-3-yl)-3,3-difluorocyclobutane-1-carboxamide] | ++ (“++” High Activity ≥0.7) |
| O=C(Nc1[nH]nc(C2CC(F)(F)C2)c1C1CCC1)OC1CC(F)(F)C1 [Compound 7, 3,3-difluorocyclobutyl (4-cyclobutyl-3-(3,3-difluorocyclobutyl)-1H-pyrazol-5-yl)carbamate] | ++ (“++” High Activity ≥0.7) |
